Source: patent US12194039B2, “Methods of treating heart failure by administering omecamtiv mecarbil” (Cytokinetics, Inc., priority 2020, dated 2025)
Entries after “also recorded” stand apart in the source; their conditions may differ. Where two headings read alike, the source gives them in different places.

Assays:
BCRP = biological target: T1, BCRP (Homo sapiens, UniProt Q9UNQ0); test: Transporter substrate assessment; format: in vitro ADME; settings: result in words
T1 sequence (Q9UNQ0 1-655): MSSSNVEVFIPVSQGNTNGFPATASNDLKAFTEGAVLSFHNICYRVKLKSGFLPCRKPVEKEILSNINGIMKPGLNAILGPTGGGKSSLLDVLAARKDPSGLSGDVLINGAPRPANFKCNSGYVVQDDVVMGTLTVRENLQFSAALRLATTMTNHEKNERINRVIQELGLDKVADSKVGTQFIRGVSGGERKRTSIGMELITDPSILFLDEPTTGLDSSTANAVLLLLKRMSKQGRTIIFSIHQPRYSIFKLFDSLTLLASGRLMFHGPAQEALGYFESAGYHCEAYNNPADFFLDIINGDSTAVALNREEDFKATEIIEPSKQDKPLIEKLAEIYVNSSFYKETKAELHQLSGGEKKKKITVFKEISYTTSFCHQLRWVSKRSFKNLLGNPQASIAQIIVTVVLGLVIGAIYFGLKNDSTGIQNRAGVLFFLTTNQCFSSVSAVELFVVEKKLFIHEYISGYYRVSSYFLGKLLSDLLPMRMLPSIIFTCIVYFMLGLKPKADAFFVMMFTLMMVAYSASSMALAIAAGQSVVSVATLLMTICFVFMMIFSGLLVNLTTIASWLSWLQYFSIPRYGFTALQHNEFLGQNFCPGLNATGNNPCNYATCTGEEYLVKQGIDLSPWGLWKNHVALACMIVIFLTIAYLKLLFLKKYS

CYP3A4 = CYP3A4 (Homo sapiens, UniProt P08684); test: Metabolism of OM by CYP enzymes; format: in vitro ADME; settings: result in words
Chain of CYP3A4 (P08684 whole entry): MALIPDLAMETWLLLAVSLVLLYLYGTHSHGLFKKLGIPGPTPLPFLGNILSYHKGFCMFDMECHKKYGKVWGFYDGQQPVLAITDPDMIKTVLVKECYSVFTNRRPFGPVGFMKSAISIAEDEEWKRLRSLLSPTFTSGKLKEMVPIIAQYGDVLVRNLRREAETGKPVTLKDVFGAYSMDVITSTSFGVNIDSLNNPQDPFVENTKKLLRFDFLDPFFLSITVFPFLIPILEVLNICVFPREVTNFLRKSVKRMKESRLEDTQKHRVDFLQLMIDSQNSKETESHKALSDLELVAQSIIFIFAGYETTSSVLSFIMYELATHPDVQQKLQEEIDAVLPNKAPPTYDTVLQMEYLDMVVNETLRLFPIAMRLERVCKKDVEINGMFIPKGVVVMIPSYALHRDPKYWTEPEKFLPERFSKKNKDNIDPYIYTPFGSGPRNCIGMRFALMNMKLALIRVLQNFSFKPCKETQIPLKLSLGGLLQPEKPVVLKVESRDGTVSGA
Text: (§1) Clearance of OM after oral administration was primarily through metabolism in the liver. […] Following oral administration of radiolabeled OM to healthy subjects, approximately 49% of the dose was excreted in urine (primarily as metabolites with 8% of parent compound recovered) and 38% in feces (primarily as unchanged drug).

CYP2D6 = CYP2D6 (Homo sapiens, UniProt P10635); test: Metabolism of OM by CYP enzymes; format: in vitro ADME; settings: result in words; listed as OM
Chain of CYP2D6 (P10635 whole entry): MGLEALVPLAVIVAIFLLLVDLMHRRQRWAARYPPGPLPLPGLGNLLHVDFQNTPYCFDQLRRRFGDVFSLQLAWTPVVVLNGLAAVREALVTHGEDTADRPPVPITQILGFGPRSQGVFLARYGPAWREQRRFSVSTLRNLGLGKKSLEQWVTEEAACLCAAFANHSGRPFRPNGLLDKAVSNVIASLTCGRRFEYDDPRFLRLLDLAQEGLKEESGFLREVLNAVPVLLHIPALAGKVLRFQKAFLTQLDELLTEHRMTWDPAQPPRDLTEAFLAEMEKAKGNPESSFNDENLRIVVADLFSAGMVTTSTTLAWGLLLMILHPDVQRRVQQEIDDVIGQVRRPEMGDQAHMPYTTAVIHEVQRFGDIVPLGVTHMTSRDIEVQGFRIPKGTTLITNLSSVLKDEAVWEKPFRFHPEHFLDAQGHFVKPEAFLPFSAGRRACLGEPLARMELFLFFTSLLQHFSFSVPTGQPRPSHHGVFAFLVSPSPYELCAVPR
Text: as §1

[1] = system: patients with heart failure and reduced ejection fraction; format: in vivo, human; settings: for Change in KCCQ total symptom score at week 24, least squares mean (SE): scale 0 to 100; for All-cause death, hazard ratio (95% CI) / Cardiovascular death, hazard ratio (95% CI) / Heart failure event, hazard ratio (95% CI) / Heart failure hospitalization, hazard ratio (95% CI) / Primary composite outcome, hazard ratio (95% CI): vs placebo; for Primary composite outcome, hazard ratio (95% CI): overall trial population
Text: Patient eligibility requirements included age 18-85 years, New York Heart Association functional class (NYHA) II-IV symptoms, and ejection fraction of 35% or less. Participants were currently hospitalized for heart failure (in-patients) or had either an urgent visit to the emergency department or a hospitalization for heart failure (outpatients) within one year prior to randomization. […] Patients were required to receive standard drug and device therapy for heart failure consistent with regional clinical practice guidelines and doses optimized according to investigator judgment.
Key exclusion criteria for patients included current hemodynamic or clinical instability requiring mechanical or intravenous medication, systolic blood pressure (SBP)<85 mmHg, estimated glomerular filtration rate (eGFR)<20 mL/min/1.73 m^2, recent acute coronary syndrome events or cardiovascular procedures (including planned), and other conditions that would adversely affect participation in the trial.
All eligible participants were randomized 1:1 to oral administration of either placebo or omecamtiv mecarbil (pharmacokinetic-guided dosing: 25, 37.5 or 50 mg) twice daily. Pre-dose plasma concentrations of omecamtiv mecarbil were measured at weeks 2 and 6 with respective dose adjustments on weeks 4 and 8. The patient and investigator were blinded to the plasma concentrations and dispensed dose. The full schedule of assessments is provided in the protocol available at NEJM.org. Study drug was temporarily withheld if the participant experienced clinical signs or symptoms consistent with acute myocardial infarction or ischemia.
The study was event-driven and was ended after approximately 1590 cardiovascular deaths. The overall type I error was 0.05 for 2-sided testing across primary and secondary endpoints with control for multiplicity testing. A single interim efficacy analysis was conducted after approximately two-thirds of the targeted number of cardiovascular deaths accrued with a one-sided alpha of 0.0005. Given the negligible impact of this interim on the final alpha, the full 0.05 was used in the final analysis consistent with the Haybittle-Peto approach. […] The mean differences in the KCCQ TSS change from baseline to Week 24 were estimated using a mixed model stratified by randomization setting (inpatient and outpatient) containing baseline TSS value, region, baseline eGFR, scheduled visit, treatment group, and the interaction of treatment group with scheduled visit. A joint omnibus F-test was used to test the treatment effect for the KCCQ TSS. An overall pooled estimate for the KCCQ TSS treatment difference to placebo were conducted using a likelihood based approach. The prespecified safety analyses included: serious adverse events; adverse events associated with discontinuation of study treatment; “adverse events of interest” i.e., ventricular arrhythmias requiring treatment and positively adjudicated major cardiac ischemic events (including myocardial infarction, hospitalization for unstable angina, coronary revascularization). […] All analyses were performed with the use of SAS software, version 9.4 (SAS Institute).
The cumulative incidences of the primary outcome, heart failure events, death from cardiovascular causes and death from any cause were estimated with the use of the Kaplan-Meier method. Hazard ratios and 95% confidence intervals were estimated with the use of Cox regression models stratified by randomization location and region and treatment with omecamtiv mecarbil or placebo as explanatory variables. Analyses are based upon all participants who underwent randomization.

[2] = Single 35 mg dose of radiolabeled OM: blood to plasma ratio and excretion; format: in vivo, human; settings: oral radiolabeled OM, healthy subjects
Text: The volume of distribution at steady state was approximately 4.8-6.6 L/kg.
as §1

[3] = N = 4120, median follow-up 21.8 months
[4] = component of primary composite, N = 4120

## COC(=O)N1CCN(Cc2cccc(NC(=O)Nc3ccc(C)nc3)c2F)CC1 [omecamtiv mecarbil]
BCRP
  Substrate of BCRP: substrate
CYP3A4
  Metabolism by CYP3A4: substrate
CYP3A4; listed as OM
  Metabolism by CYP3A4: extensively metabolized; also recorded: metabolized in vitro
CYP2D6
  Metabolism by CYP2D6: extensively metabolized; also recorded: metabolized in vitro
[1]; Inpatients
  Change in KCCQ total symptom score at week 24, difference vs placebo (95% CI): 2.5
  Change in KCCQ total symptom score at week 24, least squares mean (SE): 23.7 (0.70)
[1]; Inpatients, listed as Omecamtiv Mecarbil
  Change in KCCQ total symptom score at week 24, difference vs placebo (95% CI): 2.5 (0.54, 4.46)
[1]; N = 4120
  All-cause death, % of patients: 25.9%
  All-cause death, Events/100 patient-yrs: 14.4 Events/100 patient-yrs
  All-cause death, no. of patients: 1067 no.
  Cardiovascular death, Events/100 patient-yrs: 10.9 Events/100 patient-yrs
  Heart failure event (first), % of patients: 28.6%
  Heart failure event (first), no. of patients: 1177 no.
  Heart failure event, Events/100 patient-yrs: 18.7 Events/100 patient-yrs
  Heart failure hospitalization (first), % of patients: 27.7%
  Heart failure hospitalization (first), no. of patients: 1142 no.
  Heart failure hospitalization, Events/100 patient-yrs: 18.0 Events/100 patient-yrs
  Primary composite outcome, Events/100 patient-yrs: 24.2 Events/100 patient-yrs
[1]; [3]
  Primary composite outcome (first heart failure event or cardiovascular death), % of patients: 37.0%
  Primary composite outcome (first heart failure event or cardiovascular death), no. of patients: 1523 no.
[1]; Outpatients
  Change in KCCQ total symptom score at week 24, difference vs placebo (95% CI): −0.46
  Change in KCCQ total symptom score at week 24, least squares mean (SE): 5.8 (0.34)
[1]; Outpatients, listed as Omecamtiv Mecarbil
  Change in KCCQ total symptom score at week 24, difference vs placebo (95% CI): −0.5 (−1.40, 0.48)
[1]; [4]
  Cardiovascular death as first event, % of patients: 8.4%
  Cardiovascular death as first event, no. of patients: 346 no.
[1]; overall population, median 22 months
  Risk reduction of primary composite outcome compared to placebo: 8%
[1]; secondary outcome, N = 4120
  Cardiovascular death, % of patients: 19.6%
  Cardiovascular death, no. of patients: 808 no.
[1]
  All-cause death, hazard ratio (95% CI): 1.00
  Cardiovascular death, hazard ratio (95% CI): 1.01
  Heart failure event, hazard ratio (95% CI): 0.93
  Heart failure hospitalization, hazard ratio (95% CI): 0.95
  Primary composite outcome, hazard ratio (95% CI): 0.92
[1]; listed as Omecamtiv Mecarbil
  All-cause death, hazard ratio (95% CI): 1.00 (0.92, 1.09)
  Cardiovascular death, hazard ratio (95% CI): 1.01 (0.92, 1.11)
  Heart failure event, hazard ratio (95% CI): 0.93 (0.86, 1.00)
  Heart failure hospitalization, hazard ratio (95% CI): 0.95 (0.87, 1.03)
  Primary composite outcome, hazard ratio (95% CI): 0.92 (0.86, 0.99)
[2]
  Parent compound recovered in urine: 8%
[2]; primarily as metabolites
  Dose excreted in urine: approximately 49%
[2]; primarily as unchanged drug
  Dose excreted in feces: ~38%
